From ChEMBL document CHEMBL2069166, “β-Lactones Inhibit N-acylethanolamine Acid Amidase by S-Acylation of the Catalytic N-Terminal Cysteine” (ACS Med Chem Lett, 2012)
Activity calls are given as the source filed them. The rule behind the calls is not given here.

Key:
[1] = molecular target: T1, N-acylethanolamine-hydrolyzing acid amidase (Homo sapiens) (UniProt Q02083); assay: Binding affinity to human recombinant His6-tagged NAAA expressed in HEK293 cells assessed as formation of peptide adduct by MS/MS […] analysis; format: cell-based
T1 sequence (whole entry): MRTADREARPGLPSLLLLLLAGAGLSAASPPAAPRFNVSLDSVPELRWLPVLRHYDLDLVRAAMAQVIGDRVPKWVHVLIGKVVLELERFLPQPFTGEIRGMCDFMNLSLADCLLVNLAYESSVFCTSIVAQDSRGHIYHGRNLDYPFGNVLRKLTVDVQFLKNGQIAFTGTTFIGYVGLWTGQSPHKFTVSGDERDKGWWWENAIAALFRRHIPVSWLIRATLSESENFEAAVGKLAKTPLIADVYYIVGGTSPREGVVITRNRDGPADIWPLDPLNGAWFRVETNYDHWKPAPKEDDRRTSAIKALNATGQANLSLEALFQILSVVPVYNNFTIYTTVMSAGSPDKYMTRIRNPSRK

[2] = molecular target: T2, N-acylethanolamine-hydrolyzing acid amidase (Homo sapiens, UniProt Q02083); assay: Inhibition of human recombinant His6-tagged NAAA expressed in HEK293 cells using 10-cis-heptadecenoylethanolamide as substrate after 30 mins by UPLC/MS analysis
T2 sequence (Q02083 whole entry): T1 sequence (whole entry)

[3] = molecular target: T1, N-acylethanolamine-hydrolyzing acid amidase (Homo sapiens); conditions: HEK293, 100 nM
[4] = molecular target: T1, N-acylethanolamine-hydrolyzing acid amidase (Homo sapiens); conditions: HEK293, 10 to 30 nM
[5] = molecular target: T3, Fatty-acid amide hydrolase 1 (Rattus norvegicus) (UniProt P97612); assay: Inhibition of FAAH in rat brain homogenate using [3H]anandamide as substrate up to 30 uM after 30 mins by liquid scintillation counting; format: tissue-based
T3 sequence (whole entry): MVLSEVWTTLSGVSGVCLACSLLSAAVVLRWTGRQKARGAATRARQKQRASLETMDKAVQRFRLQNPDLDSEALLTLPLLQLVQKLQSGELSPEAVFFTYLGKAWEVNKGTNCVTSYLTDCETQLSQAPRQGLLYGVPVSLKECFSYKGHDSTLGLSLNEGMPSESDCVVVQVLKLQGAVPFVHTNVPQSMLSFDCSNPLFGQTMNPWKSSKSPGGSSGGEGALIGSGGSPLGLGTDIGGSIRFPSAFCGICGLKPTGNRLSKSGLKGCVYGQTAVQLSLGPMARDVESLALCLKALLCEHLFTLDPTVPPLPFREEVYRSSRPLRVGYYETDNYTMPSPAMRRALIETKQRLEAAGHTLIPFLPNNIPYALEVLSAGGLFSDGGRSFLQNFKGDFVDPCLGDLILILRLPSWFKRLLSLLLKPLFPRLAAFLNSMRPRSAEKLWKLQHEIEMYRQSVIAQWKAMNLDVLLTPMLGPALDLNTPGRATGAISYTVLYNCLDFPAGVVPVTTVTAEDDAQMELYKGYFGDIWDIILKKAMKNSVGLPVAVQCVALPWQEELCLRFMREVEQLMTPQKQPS

[6] = molecular target: T4, Acid ceramidase (Homo sapiens) (UniProt Q13510); assay: Inhibition of human acid ceramidase expressed in HEK293 cells up to 30 uM using N-lauroyl- ceramide substrate by UPLC/MS analysis; format: cell-based
T4 sequence (whole entry): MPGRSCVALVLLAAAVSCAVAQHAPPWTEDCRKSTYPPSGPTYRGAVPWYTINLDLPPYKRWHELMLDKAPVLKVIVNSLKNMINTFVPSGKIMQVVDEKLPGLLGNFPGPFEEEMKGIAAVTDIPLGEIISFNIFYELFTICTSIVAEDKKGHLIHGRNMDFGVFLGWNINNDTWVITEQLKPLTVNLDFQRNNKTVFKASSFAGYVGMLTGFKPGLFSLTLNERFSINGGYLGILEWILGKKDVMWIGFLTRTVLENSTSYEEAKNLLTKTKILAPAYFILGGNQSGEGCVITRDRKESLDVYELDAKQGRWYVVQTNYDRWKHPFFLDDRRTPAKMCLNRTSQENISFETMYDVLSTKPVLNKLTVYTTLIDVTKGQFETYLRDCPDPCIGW

Row | Activity [1] | IC50 [2] [nM] | inhibition [3] | inhibition [4] | inhibition [5] | inhibition [6] | SMILES
1 | Active | 314 | – | – | – | – | C[C@@H]1OC(=O)[C@@H]1NC(=O)CCCCCCc1ccccc1
2 | – | 7.3 | Active | Active | inactive | inactive | C[C@@H]1OC(=O)[C@@H]1NC(=O)OCCCCCc1ccccc1
